Test system: NFE2L1 pathway (DDI2-dependent) in HCT116 cells
Assay: 3×PSMA4-ARE-LUC reporter in HCT116 WT and DDI2 knockout cells
Type: cell-based, human
Procedure: Fig. 1 (A) Targeted library screening of RUN compounds using the 3×PSMA4-ARE-LUC dual reporter assay in HEK293 cells. Cells were exposed to RUN compounds (5 μM) for 16 hours, and luciferase activity was measured. Data are presented as the mean ± SD from three independent experiments (n = 3). Results are shown as a fold change in luminescence relative to DMSO-treated cells. Selected hit compounds are highlighted in distinct colours. (B) RUN-89 specifically activates the NFE2L1 pathway. The DDI2 knockout (KO) and parental (WT) HCT116 cells were transfected with the 3×PSMA4-ARE-LUC reporter and treated with 0.5 μM bortezomib (BTZ) and 5 μM RUN-89 for 16 hours. Data are presented as the Geomean ± GeoSD of three independent experiments (n = 3). Statistical analysis was performed on log2-transformed values using two-way repeated-measures ANOVA followed by Šídak's multiple comparison test. (C) RUN-89 selectively triggers downstream signaling events associated with NFE2L1 gene expression. HEK293 cells were transfected with lipid nanoparticles (LNPs) carrying siRNAs targeting NFE2L1 or NFE2L2. LNPs formulated with non-targeting siRNA served as a negative control. Following 24 hours of incubation, cells were treated with 7.5 μM RUN-89 or DMSO (vehicle) for an additional 16 hours. Expression of the proteasomal subunit gene PSMC4 was then quantified by RT-qPCR. Data are shown as the Geomean ± GeoSD from three independent biological replicates (n = 3). Log2-transformed data were analyzed using two-way repeated-measures ANOVA with the Geisser–Greenhouse correction, followed by Tukey's multiple comparison test with individual variances computed for each comparison. Additional results for NFE2L1, NFE2L2, PSMB7, and PSMD12 are presented in SI Fig. S10.
To clarify whether the representative compound RUN-89 activates the NFE2L1-specific luciferase reporter independently of the KEAP1–NFE2L2 pathway, we used the 3×PSMA4-ARE-LUC dual reporter in previously published DDI2 knockout HCT116 cells (from ATCC CCL-247 (RRID:CVCL_0291)), in which the protease essential for NFE2L1 activation is disrupted. […] These findings indicate that RUN-89 activates the reporter construct through NFE2L1.
2 Biology Experimental Procedures […]
Cell lines were sourced from the ATCC (USA) and/or ECACC (UK), namely HCT116 (human colorectal carcinoma), ATCC CCL-247 (RRID:CVCL_0291), HEK-293 (human embryonic kidney), ATCC CRL-1573 (RRID:CVCL_0045), SH-SY5Y (human neuroblastoma), ATCC CRL-2266 (RRID:CVCL_0019). The characteristics of DDI2 knockout cells derived from HCT116 cells have been described previously (Sedlacek et al., 2025). All cell lines were tested for mycoplasma contamination. Most of the cell lines were cultured in Dulbecco's Modified Eagle Medium (DMEM) enriched with 10% fetal bovine serum (FBS) and 2 mM L-glutamine, under standard conditions of 37 °C with 5% CO₂. DNA transfection was performed with Lipofectamine 2000, following the manufacturer's instructions. […]
alamarBlue assay according to the standard protocol.(1)
2.3 Dual luciferase phenotypic assays
HEK293-derived cells stably expressing the 3×PSMA4-ARE-Luc reporter were maintained at low to mid passage numbers before use. For each experiment, cells were transiently transfected with the pRL-TK Renilla luciferase plasmid using Lipofectamine 2000.
Approximately 5–6 hours post-transfection, cells were seeded into plate format according to the experiment (384-well plate mostly). On the following day, cells were treated with the indicated test compounds or DMSO vehicle control for 16 hours (unless otherwise specified).
After treatment, cells were lysed and luciferase activities were quantified using the Dual-Luciferase® Reporter Assay System according to the manufacturer’s instructions and established protocols.(2, 3) For assays using the CMV-XBP-Gluc construct encoding Gaussia […]

COc1ccc(/C=C2\CC(NC(=O)C3CCCC3)C/C(=C\c3ccc(OC)c(OC)c3)C2=O)cc1OC (stereo not shown) [RUN-89]
Mean log2-transformed reporter fold change, HCT116 KO 04 (DDI2-/- clone KO 04, 0.5 μM BTZ or 5 μM RUN-89, 16 h, DMSO = 0): 0.09237
Mean log2-transformed reporter fold change, HCT116 KO 11 (DDI2-/- clone KO 11, 0.5 μM BTZ or 5 μM RUN-89, 16 h, DMSO = 0): 0.4773
Reporter activity in DDI2-deficient cells (DDI2 knockout HCT116, in contrast to wild-type cells): neither the proteasome inhibitor bortezomib nor RUN-89 induced reporter activity
Mean log2-transformed reporter fold change, HCT116 WT (WT (DDI2+/+), 0.5 μM BTZ or 5 μM RUN-89, 16 h, DMSO = 0): 1.7
